One experiment deals with T1, JAK1 (Homo sapiens, UniProt P23458).
T1 construct: JH1 domain
The experiment is described as follows: total tyrosine, STAT3 and STAT1 phosphorylation in HEK293T over-expressing JAK1-JH1, Western blot. Type of experiment: cell-based.

A further experiment addresses T2, JAK3 (Homo sapiens, UniProt P52333).
T2 construct: JH1 domain
The experiment is described as follows: total tyrosine, STAT3 and STAT1 phosphorylation in HEK293T over-expressing JAK3-JH1, Western blot. It is filed as cell-based. (In general: Immunoblotting shows a protein as a band on a membrane.)

In a further experiment the target is T3, Tyk2 (Homo sapiens, UniProt P29597).
T3 construct: JH1 tyrosine kinase domain, C-terminal Flag-His tag, purified from HEK293T
T3 sequence (P29597 880-1187 limits assumed): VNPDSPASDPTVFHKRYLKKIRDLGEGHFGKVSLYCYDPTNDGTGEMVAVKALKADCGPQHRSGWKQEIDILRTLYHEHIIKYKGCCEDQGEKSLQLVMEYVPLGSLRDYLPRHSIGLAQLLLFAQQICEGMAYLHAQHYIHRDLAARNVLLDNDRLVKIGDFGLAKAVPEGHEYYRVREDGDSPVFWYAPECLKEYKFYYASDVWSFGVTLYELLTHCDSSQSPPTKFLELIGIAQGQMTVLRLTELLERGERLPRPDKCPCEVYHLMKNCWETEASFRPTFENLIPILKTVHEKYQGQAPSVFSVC
The experiment is described as follows: in vitro kinase assay with purified Tyk2-JH1 and recombinant hSTAT3 substrate, Western blot pTyr705-STAT3 ([…]). It is filed as biochemical.

Another experiment addresses c-Src (Homo sapiens, UniProt P12931). Briefly: phosphotyrosine Western blot of immunoprecipitated Flag-c-Src from treated HEK293T cells ([…], […] h). It is filed as cell-based.

T2 sequence (P52333 781-1124 limits assumed): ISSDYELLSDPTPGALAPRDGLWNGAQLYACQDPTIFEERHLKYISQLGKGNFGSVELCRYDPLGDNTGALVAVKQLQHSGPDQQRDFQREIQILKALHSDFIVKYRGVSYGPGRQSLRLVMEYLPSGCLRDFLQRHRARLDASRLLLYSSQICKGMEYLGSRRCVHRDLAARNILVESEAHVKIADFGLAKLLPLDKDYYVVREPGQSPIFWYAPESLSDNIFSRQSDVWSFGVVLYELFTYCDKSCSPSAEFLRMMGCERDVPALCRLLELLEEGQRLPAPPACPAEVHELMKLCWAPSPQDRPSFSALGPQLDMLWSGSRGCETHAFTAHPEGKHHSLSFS
Sequence of c-Src (P12931 2-536): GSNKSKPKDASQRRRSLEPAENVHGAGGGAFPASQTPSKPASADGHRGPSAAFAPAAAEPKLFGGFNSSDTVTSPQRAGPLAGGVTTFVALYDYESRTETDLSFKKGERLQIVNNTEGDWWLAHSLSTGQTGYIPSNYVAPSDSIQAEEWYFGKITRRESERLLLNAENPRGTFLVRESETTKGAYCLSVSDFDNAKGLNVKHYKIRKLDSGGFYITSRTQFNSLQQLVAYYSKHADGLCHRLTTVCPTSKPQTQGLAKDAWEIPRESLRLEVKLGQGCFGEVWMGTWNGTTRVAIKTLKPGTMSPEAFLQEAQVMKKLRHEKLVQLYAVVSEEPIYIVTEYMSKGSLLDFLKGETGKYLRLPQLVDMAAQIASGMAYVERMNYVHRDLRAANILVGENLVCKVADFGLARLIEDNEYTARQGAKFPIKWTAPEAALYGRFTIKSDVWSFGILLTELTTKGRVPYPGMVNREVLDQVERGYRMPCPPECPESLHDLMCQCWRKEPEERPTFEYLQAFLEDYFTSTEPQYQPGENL
T1 sequence (P23458 875-1153 limits assumed): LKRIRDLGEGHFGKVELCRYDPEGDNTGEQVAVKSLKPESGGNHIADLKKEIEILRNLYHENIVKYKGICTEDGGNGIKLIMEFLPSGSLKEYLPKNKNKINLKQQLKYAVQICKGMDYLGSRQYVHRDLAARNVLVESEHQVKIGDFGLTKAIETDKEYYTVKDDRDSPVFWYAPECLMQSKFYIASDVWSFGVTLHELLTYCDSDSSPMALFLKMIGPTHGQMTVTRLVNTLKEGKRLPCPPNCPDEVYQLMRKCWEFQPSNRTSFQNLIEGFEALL

Take `C/C=C(/C)C(=O)O[C@H]1[C@@H]2[C@H](C)C(=O)O[C@@H]2C[C@@H](C)[C@@H]2C=CC(=O)[C@]21C` [Brevilin A]: the IC50 entry against JAK1 and on JAK3 was “IC50 measurements of four JAKs-JH1 truncated kinases” throughout. For the same molecule, on Tyk2, the “in vitro kinase assay with purified Tyk2-JH1 and recombinant hSTAT3 substrate, W” value is given as “Western-Blot showed that Brevilin A inhibited Tyk2-JH1 kinase activity directly”.
As to `Cc1cc(Nc2ncc3cc(-c4c(Cl)cccc4Cl)c(=O)n(C)c3n2)ccc1F` [PD-180970], on c-Src, the “phosphotyrosine Western blot of immunoprecipitated Flag-c-Src from treated HEK29” value was “IP results showed that PD180970 was able to decrease Src phosphorylation while Brevilin A was not”.

The values are drawn from publication PMC3660600, “Brevilin A, a Novel Natural Product, Inhibits Janus Kinase Activity and Blocks STAT3 Signaling in Cancer Cells” (PLoS ONE, 2013).
